Measurements reported in US9315475B2 (MERCK SHARP & DOHME CORP., priority 2011, dated 2016).

test system: HIV-1 (H9IIIB strain); assay: Antiviral acute infection assay in cell culture (Spread); format: cell-based; details: HIV-1 H9IIIB infection of MT-4 human T-lymphoid cells in 10% FBS; mean of at least two independent experiments
Text: Antiviral Assays in Cell Culture (“Spread”)
Acute Infection Assay (“Spread”) data were generated using HIV-1 (H9IIIB strain) infection of MT-4 human T-lymphoid cells in 10% FBS, and according to the methods disclosed by J. P. Vacca et al, “L-735,524: An orally bioavailable human immunodeficiency virus type 1 protease inhibitor,” Proc. Natl. Acad. Sci. USA, Vol. 91, pp. 4096-4100 (April 1994).

EC50 [nM]	SMILES
380	O=C(C[C@@H](c1ccc(F)cc1)c1ccc(OC(F)(F)F)cc1)Nc1cccc(F)c1CC[C@@H]1CN[C@H](COC(=O)NCC(F)(F)F)CO1 [Example 159, [(3S,6R)-6-{2-[2-fluoro-6-({(3R)-3-(4-fluorophenyl)-3-[4-(trifluoro-methoxy)phenyl]propanoyl}amino)phenyl]ethyl}morpholin-3-yl] methyl (2,2,2-trifluoroethyl)carbamate]

same assay, conditions: Human immunodeficiency virus 1, T-lymphoid, HIV-1 H9IIIB infection of MT-4 human T-lymphoid cells in 10% FBS; mean of at least two independent experiments

SMILES	EC50 [nM]
O=C(C[C@@H](c1ccc(F)cc1)c1cncc(C(F)(F)F)c1)Nc1cccc(F)c1CC[C@@H]1CN[C@H](COC(=O)NCC(F)(F)F)CO1 [Example 139, [(3S,6R)-6-{2-[2-Fluoro-6-({(3S)-3-(4-fluorophenyl)-3-[5-(trifluoromethyl)pyridin-3-yl]propanoyl}amino)phenyl]ethyl}morpholin-3-yl]methyl (2,2,2-trifluoroethyl)carbamate]	108
CC1(C(=O)N[C@H](C(=O)Nc2cccc(F)c2CC[C@@H]2CN[C@H](COC(=O)NCC(F)(F)F)CO2)C(c2ccc(F)cc2)c2ccc(F)cc2)CC1 [Example 142, 4-Fluoro-β-(4-fluorophenyl)-N-(3-fluoro-2-{2-[(2R,5S)-5-({[(2,2,2-trifluoroethyl)carbamoyl]oxy}methyl)morpholin-2-yl]ethyl}phenyl)-Nα-[(1-methylcyclopropyl)carbonyl]-L-phenylalaninamide]	150
O=C(CC(F)(F)F)NC[C@@H]1CO[C@H](CCc2c(F)cccc2NC(=O)CC(c2ccc(F)cc2)c2ccc(F)cc2)CN1 [Example 144, N-({(3R,6R)-6-[2-(2-{[3,3-Bis(4-fluorophenyl)propanoyl]amino}-6-fluorophenyl)ethyl]morpholin-3-yl}methyl)-3,3,3-trifluoropropanamide]	170
NC(=O)OC[C@@H]1CO[C@H](CCc2c(F)cccc2NC(=O)CC(c2ccccc2)c2ccccc2)CN1 [Example 152, [(3S,6R)-6-(2-{2-[(3,3-diphenylpropanoyl)amino]-6-fluorophenyl}ethyl)morpholin-3-yl] methyl carbamate]	88
O=C(C[C@@H](c1ccc(F)cc1)c1cccc(F)c1F)Nc1cccc(F)c1CC[C@@H]1CN[C@H](COC(=O)NCC(F)(F)F)CO1 [Example 153, {(3S,6R)-6-[2-(2-{[(3S)-3-(2,3-difluorophenyl)-3-(4-fluorophenyl)propanoyl]amino}-6-fluoro-phenyl)ethyl]morpholin-3-yl}methyl (2,2,2-trifluoroethyl)carbamate]	130
O=C(CC(c1ccc(F)cc1)c1ccc(F)cc1)Nc1cncc(F)c1CC[C@@H]1CN[C@H](COC(=O)NCC2CCCO2)CO1 (stereo partly drawn) [Example 169, {(3S,6R)-6-[2-(3-{[3,3-bis(4-fluoro-phenyl)propanoyl]amino}-5-fluoropyridin-4-yl)ethyl]morpholin-3-yl}methyl (tetrahydrofuran-2-ylmethyl)carbamate]	73
CCc1nc(CNC(=O)OC[C@@H]2CO[C@H](CCc3c(F)cncc3NC(=O)CC(c3ccc(F)cc3)c3ccc(F)cc3)CN2)no1 [Example 174, {(3S,6R)-6-[2-(3-{[3,3-bis(4-fluoro-phenyl)propanoyl]amino}-5-fluoropyridin-4-yl)ethyl]morpholin-3-yl}methyl [(5-ethyl-1,2,4-oxadiazol-3-yl)methyl]carbamate]	120
O=C(CC(c1ccc(F)cc1)c1ccc(F)cc1)Nc1cncc(F)c1CC[C@@H]1CN[C@H](COC(=O)NCc2ccc(F)cc2)CO1 [Example 176, {(3S,6R)-6-[2-(3-{[3,3-bis(4-fluoro-phenyl)propanoyl]amino}-5-fluoropyridin-4-yl)ethyl]morpholin-3-yl}methyl (4-fluorobenzyl)carbamate]	73
N#Cc1ncccc1[C@@H](CC(=O)Nc1cccc(F)c1CC[C@@H]1CN[C@H](COC(=O)NCC(F)(F)F)CO1)c1ccc(F)cc1 [Example 178, {(3S,6R)-6-[2-(2-{[(3S)-3-(2-cyanopyridin-3-yl)-3-(4-fluorophenyl)propanoyl]amino}-6-fluoro-phenyl)ethyl]morpholin-3-yl}methyl (2,2,2-trifluoroethyl)carbamate]	85
COc1ccc([C@H](CC(=O)Nc2cncc(F)c2CC[C@@H]2CN[C@H](COC(=O)NCC(F)(F)F)CO2)c2ccccc2)cc1Cl [Example 179, {(3S,6R)-6-[2-(3-{[(3R)-3-(3-chloro-4-methoxyphenyl)-3-phenylpropanoyl]amino}-5-fluoropyridin-4-yl)ethyl]morpholin-3-yl}methyl (2,2,2-trifluoroethyl)carbamate]	240
O=C(C[C@@H](c1ccc(F)cc1)c1ccccc1C(F)(F)F)Nc1cncc(F)c1CC[C@@H]1CN[C@H](COC(=O)NCC(F)(F)F)CO1 [Example 180, [(3S,6R)-6-{2-[3-fluoro-5-({(3S)-3-(4-fluorophenyl)-3-[2-(trifluoro-methyl)phenyl]propanoyl}amino)pyridin-4-yl]ethyl}morpholin-3-yl]methyl (2,2,2-trifluoroethyl)carbamate]	310

The remaining lines, values ahead:

EC50 [nM]	SMILES
68	CC(NC(=O)OC[C@@H]1CO[C@H](CCc2c(F)cncc2NC(=O)CC(c2ccc(F)cc2)c2ccc(F)cc2)CN1)C1CCCO1 (stereo partly drawn) [Example 171, {(3S,6R)-6-[2-(3-{[3,3-bis(4-fluoro-phenyl)propanoyl]amino}-5-fluoropyridin-4-yl)ethyl]morpholin-3-yl}methyl [1-(tetrahydrofuran-2-yl)ethyl]carbamate]
61	O=C(CC(c1ccc(F)cc1)c1ccc(F)cc1)Nc1cncc(F)c1CC[C@@H]1CN[C@H](COC(=O)NCCOc2ccccc2)CO1 [Example 170, {(3S,6R)-6-[2-(3-{[3,3-bis(4-fluoro-phenyl)propanoyl]amino}-5-fluoropyridin-4-yl)ethyl]morpholin-3-yl}methyl (2-phenoxyethyl)carbamate]
60	Cc1cc(C)n(CCNC(=O)OC[C@@H]2CO[C@H](CCc3c(F)cncc3NC(=O)CC(c3ccc(F)cc3)c3ccc(F)cc3)CN2)n1 [Example 172, {(3S,6R)-6-[2-(3-{[3,3-bis(4-fluoro-phenyl)propanoyl]amino}-5-fluoropyridin-4-yl)ethyl]morpholin-3-yl}methyl [2-(3,5-dimethyl-1H-pyrazol-1-yl)ethyl]carbamate]
41	CNC(=O)OC[C@@H]1CO[C@H](CCc2c(F)cncc2NC(=O)CC(c2ccc(F)cc2)c2ccc(F)cc2)CN1 [Example 177, {(3S,6R)-6-[2-(3-{[3,3-bis(4-fluoro-phenyl)propanoyl]amino}-5-fluoropyridin-4-yl)ethyl]morpholin-3-yl}methyl methylcarbamate]
40	O=C(CC(F)(F)F)NC[C@@H]1CO[C@H](CCc2c(F)cncc2NC(=O)CC(c2ccc(F)cc2)c2ccc(F)cc2)CN1 [Example 143, N-({(3R,6R)-6-[2-(3-{[3,3-Bis(4-fluorophenyl)propanoyl]amino}-5-fluoropyridin-4-yl)ethyl]morpholin-3-yl}methyl)-3,3,3-trifluoropropanamide]
39	O=C(CC(c1ccc(F)cc1)c1ccc(F)cc1)Nc1cncc(F)c1CC[C@@H]1CN[C@H](COC(=O)NC(CO)C2CC2)CO1 (stereo partly drawn) [Example 175, {(3S,6R)-6-[2-(3-{[3,3-bis(4-fluoro-phenyl)propanoyl]amino}-5-fluoropyridin-4-yl)ethyl]morpholin-3-yl}methyl (1-cyclopropyl-2-hydroxyethyl)carbamate]
37	O=C(CC(c1ccc(F)cc1)c1ccc(F)cc1)Nc1cncc(F)c1CC[C@@H]1CN[C@H](COC(=O)NC2CCOC2)CO1 (stereo partly drawn) [Example 173, {(3S,6R)-6-[2-(3-{[3,3-bis(4-fluoro-phenyl)propanoyl]amino}-5-fluoropyridin-4-yl)ethyl]morpholin-3-yl}methyl tetrahydrofuran-3-ylcarbamate]
34	O=C(C[C@@H](c1ccc(F)cc1)c1ccccc1F)Nc1cncc(F)c1CC[C@@H]1CN[C@H](COC(=O)NCC(F)(F)F)CO1 [Example 158, {(3S,6R)-6-[2-(3-fluoro-5-{[(3S)-3-(2-fluorophenyl)-3-(4-fluorophenyl)propanoyl]amino}pyridin-4-yl)ethyl]morpholin-3-yl]methyl (2,2,2-trifluoroethyl)carbamate]
31	O=C(C[C@@H](c1ccc(F)cc1)c1ccncc1F)Nc1cccc(F)c1CC[C@@H]1CN[C@H](COC(=O)NCC(F)(F)F)CO1 [Example 138, {(3S,6R)-6-[2-(2-Fluoro-6-{[(3S)-3-(4-fluorophenyl)-3-(3-fluoropyridin-4-yl)propanoyl]amino}phenyl)ethyl]morpholin-3-yl}methyl (2,2,2-trifluoroethyl)carbamate]
31	N#Cc1cccc([C@@H](CC(=O)Nc2cccc(F)c2CC[C@@H]2CN[C@H](COC(=O)NCC(F)(F)F)CO2)c2ccc(F)cc2)c1 [Example 160, {(3S,6R)-6-[2-(2-{[(3S)-3-(3-cyanophenyl)-3-(4-fluorophenyl)propanoyl]amino}-6-fluoro-phenyl)ethyl]morpholin-3-yl}methyl (2,2,2-trifluoroethyl)carbamate]
13	O=C(CC(c1ccc(F)cc1)c1ccc(F)cc1)Nc1cncc(F)c1CC[C@@H]1CN[C@H](COC(=O)NCCNc2ccccc2)CO1 [Example 168, {(3S,6R)-6-[2-(3-{[3,3-bis(4-fluorophenyl)propanoyl]amino}-5-fluoropyridin-4-yl)ethyl]morpholin-3-yl}methyl [2-(phenyl-amino)ethyl]carbamate]
9.8	COC(=O)N[C@H](C(=O)Nc1cccc(F)c1CC[C@@H]1CN[C@H](COC(=O)NCC(F)(F)F)CO1)[C@@H](c1ccc(Cl)cc1)c1cncc(F)c1 [Example 137, (βS)-4-Chloro-β-(5-fluoropyridin-3-yl)-N-(3-fluoro-2-{2-[(2R,5S)-5-({[(2,2,2-trifluoroethyl)carbamoyl]oxy}methyl)morpholin-2-yl]ethyl}phenyl)-Nα-(methoxycarbonyl)-L-phenylalaninamide]
